# Results reported in PMC11968506, “Toxicokinetics and analytical toxicology of the phenmetrazine-derived new psychoactive substance 3,4-methylenedioxyphenmetrazine studied by means of in vitro systems” (Archives of Toxicology, 2025).
# Legend:
# CYP2D6 = CYP2D6 (Homo sapiens, UniProt P10635); assay: CYP inhibition cocktail assay in pHLM, CYP2D6 (dextromethorphan)
# Experimental: (§1) A modified dual-cocktail based method (Dinger et al. [2014b]) was used. Substrate cocktail A consisted of 8.9 µM dextromethorphan (CYP2D6), 86 µM testosterone (CYP3A4), 3.5 µM diclofenac (CYP2C9), and 12 µM phenacetin (CYP1A2). Substrate cocktail B included 30 µM bupropion (CYP2B6), 2 µM amodiaquine (CYP2C8) and 21 µM omeprazole (CYP2C19). Substrate concentrations were near their respective Michaelis–Menten constant (Km) values (Dinger et al. [2014a]) and all concentrations are final. Enzyme inhibition was investigated using a positive control, a test group, a control group, an interference group, and a negative control. In the test group, specific inhibitors were replaced by MDPM (20 µM). Instead of inhibitors, phosphate buffer was used in the control group. Enzymes were replaced with phosphate buffer in the negative control group. The interference group was incubated like the control group, but the reaction was stopped with 20 µM MDPM in acetonitrile, also containing 2.5 µM trimipramine-d3. All groups were incubated with a NADPH-regenerating system, consisting of 5 mM isocitrate, 2 U/mL isocitrate dehydrogenase, 5 mM Mg^2+, and 1.2 mM NADP^+. Further, substrate cocktail A or B, 90 mM phosphate buffer (pH 7.4), and 200 U/mL superoxide dismutase were added to each group. […] All groups were preincubated for 10 min at 37 °C. Then, pHLM (0.4 mg microsomal protein/mL) was added to each group except the negative control. Incubations were done for 15 min at 37 °C. Therefore, 50 µL of acetonitrile (− 20 °C) containing 2.5 µM trimipramine-d3 as internal standard was added. Incubations were done in triplicates and organic solvent in the incubation mixture was below 1% (Chauret et al. [1998]). Afterwards the samples were vortexed and centrifuged for 2 min at 18,407×g. 70 µL of the supernatant were transferred to autosampler vials and 10 µL were injected onto the LC-HRMS/MS system. Enzyme inhibition was evaluated by metabolite formation. […] The following settings were used: unpaired; one-tailed; significance level, 0.05; confidence intervals, 99%.
# CYP2B6 = molecular target: T1, CYP2B6 (Homo sapiens, UniProt P20813); assay: CYP inhibition cocktail assay in pHLM, CYP2B6 (bupropion); settings: inhibitor 20 µM
# T1 sequence (P20813 1-491): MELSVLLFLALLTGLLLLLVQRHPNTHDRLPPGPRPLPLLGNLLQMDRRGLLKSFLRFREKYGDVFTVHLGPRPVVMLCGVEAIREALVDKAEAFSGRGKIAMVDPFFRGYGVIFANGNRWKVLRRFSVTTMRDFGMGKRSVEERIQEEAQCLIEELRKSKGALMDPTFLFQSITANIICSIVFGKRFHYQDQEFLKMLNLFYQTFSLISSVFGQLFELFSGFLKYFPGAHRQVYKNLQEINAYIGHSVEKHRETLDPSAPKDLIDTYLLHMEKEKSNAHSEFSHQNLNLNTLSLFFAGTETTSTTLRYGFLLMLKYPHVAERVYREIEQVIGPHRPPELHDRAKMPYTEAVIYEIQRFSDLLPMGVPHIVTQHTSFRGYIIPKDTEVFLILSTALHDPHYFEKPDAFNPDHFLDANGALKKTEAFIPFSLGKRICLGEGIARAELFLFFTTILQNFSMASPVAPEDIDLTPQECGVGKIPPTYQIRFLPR
# Experimental: as §1
# [1] = In vitro half-life by substrate depletion in pHLS9; type: in vitro ADME; settings: human, pooled human liver S9 fraction (pHLS9), pHLS9, 25 µM substrate, sampling 0-180 min, read-out: in vitro half-life (t1/2)
# Experimental: Incubations with pHLS9 were performed in accordance with previous publications and minor adjustments (Richter et al. [2017]). First, 25 μg/mL alamethicin (UGT reaction mix B), pHLS9 (2 mg microsomal protein/mL), 0.1 mM AcCoA, 2.3 mM acetylcarnitine, 8 U/mL carnitine acetyltransferase, 2.5 mM isocitrate, 0.8 U/mL isocitrate dehydrogenase, 100 U/mL superoxide dismutase, 0.6 mM NADP^+ and 2.5 mM Mg^2+ were preincubated for 10 min at 37 °C. Then, 2.5 mM UDP-glucuronic acid (UGT reaction mix A), 40 µM PAPS, 1.2 mM SAM, 1 mM DTT and 10 mM GSH were added. The reaction was started by adding the respective substrate MDPM, MDMA, or quetiapine (25 µM each). MDMA and quetiapine were incubated as positive controls. Negative control samples without enzymes and blank samples without substrates were incubated to identify not metabolically formed compounds and to confirm the absence of interfering compounds. […] Aliquots (50 µL) were transferred to a new reaction tube after 60 and 360 min. […] Samples were vortexed, stored at − 20 °C for 30 min, and centrifuged for 2 min at 18,407×g.
# Incubations to investigate in vitro half-life were performed under the same incubation conditions as described above and done in duplicate. […] A t-test was performed to compare absolute peak areas of the incubation group and the control group at 0 min. […]
# In vitro half-life was determined by measuring substrate depletion. […]
# Sequence of CYP2D6 (P10635 whole entry): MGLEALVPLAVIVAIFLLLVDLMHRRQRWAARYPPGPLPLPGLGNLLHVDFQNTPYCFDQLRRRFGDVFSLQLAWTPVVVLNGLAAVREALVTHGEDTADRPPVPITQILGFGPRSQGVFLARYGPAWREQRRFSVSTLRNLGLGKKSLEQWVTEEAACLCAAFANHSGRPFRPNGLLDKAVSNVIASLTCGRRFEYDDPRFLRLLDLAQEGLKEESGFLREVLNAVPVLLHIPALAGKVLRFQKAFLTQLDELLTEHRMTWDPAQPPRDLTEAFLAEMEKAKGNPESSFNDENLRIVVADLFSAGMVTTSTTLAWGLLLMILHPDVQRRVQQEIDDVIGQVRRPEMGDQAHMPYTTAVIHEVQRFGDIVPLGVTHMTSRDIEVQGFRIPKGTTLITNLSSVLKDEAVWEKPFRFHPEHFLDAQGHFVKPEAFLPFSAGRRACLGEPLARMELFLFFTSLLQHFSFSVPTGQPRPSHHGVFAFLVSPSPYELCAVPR
smiles,measurement,setting,value
"CC1NCCOC1c1ccc2c(c1)OCO2 (centres unmarked) [MDPM, 2-(1,3-benzodioxol-5-yl)-3-methylmorpholine]","inhibition at 15 min, 20 µM","CYP2D6; human, pH 7.4",77%
same,CYP2D6 metabolite formation,"CYP2D6; inhibitor 20 µM, dextromethorphan 8.9 µM, pHLM 0.4 mg/mL, 15 min, control without inhibitor = 100%",23%
same,CYP2B6 metabolite formation,"CYP2B6; bupropion 30 µM, pHLM 0.4 mg/mL, 15 min, control without inhibitor = 100%",113%
same,inhibition of CYP2B6,"CYP2B6; bupropion, pHLM, t-test versus control",no significant inhibition
same,half-life at 25 µM,[1],> 3 h
